Experimental data from ChEMBL document CHEMBL3822442, “Synthesis and Pharmacological Characterization of Novel Glucagon-like Peptide-2 (GLP-2) Analogues with Low Systemic Clearance” (J Med Chem, 2016).
Activity calls are given as the source filed them. No cut-off for these calls is given here. Non-standard residues stand in square brackets, D forms with d. Residues, ends and D or L forms follow the SMILES beside them. ξ: configuration not given here. ξNle = CCCCC(N)C(=O)O

What was measured:
HEK293 = assay: Selectivity ratio of EC50 for human GLP1R expressed in HEK293 cells to EC50 for human GLP2R expressed in HEK293; assay type: cell-based
[1] = target: T1, Glucagon-like peptide 1 receptor (Homo sapiens, UniProt P43220); assay: Agonist activity at human GLP1R expressed in HEK293 cells after 5 hrs by luciferase reporter gene assay; assay type: cell-based
[2] = Systemic clearance in Sprague-Dawley rat at 0.2 mg/kg, iv through cassette dosing measured up to 300 mins by LC/MS/MS analysis; assay type: ADME, organism-based; conditions: in vivo
[3] = target: T1, Glucagon-like peptide 1 receptor; assay: Agonist activity at human GLP1R expressed in HEK293 cells at 30 nM after 5 hrs by luciferase reporter gene assay; assay type: cell-based
[4] = target: T2, Glucagon-like peptide 2 receptor (Homo sapiens, UniProt O95838); assay: Agonist activity at human GLP2R expressed in HEK293 cells after 5 hrs by luciferase reporter gene assay; assay type: cell-based
T2 sequence (O95838 whole entry): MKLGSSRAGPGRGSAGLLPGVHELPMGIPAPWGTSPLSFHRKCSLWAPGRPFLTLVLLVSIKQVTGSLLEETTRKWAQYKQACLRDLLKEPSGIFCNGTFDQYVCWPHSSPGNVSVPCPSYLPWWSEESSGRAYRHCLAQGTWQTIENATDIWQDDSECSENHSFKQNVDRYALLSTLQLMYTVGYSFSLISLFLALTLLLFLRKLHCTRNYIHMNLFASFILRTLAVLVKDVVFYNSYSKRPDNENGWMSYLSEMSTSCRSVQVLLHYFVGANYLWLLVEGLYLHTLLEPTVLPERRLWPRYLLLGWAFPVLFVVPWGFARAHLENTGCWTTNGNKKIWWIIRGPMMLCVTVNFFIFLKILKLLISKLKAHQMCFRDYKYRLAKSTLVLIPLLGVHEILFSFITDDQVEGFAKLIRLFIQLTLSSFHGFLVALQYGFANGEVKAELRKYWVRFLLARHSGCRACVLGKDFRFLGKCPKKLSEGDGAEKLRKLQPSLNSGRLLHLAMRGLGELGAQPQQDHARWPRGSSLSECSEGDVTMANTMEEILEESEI

[5] = target: Glucagon receptor (Homo sapiens) (UniProt P47871); assay: Agonist activity at human GCGR expressed in HEK293 cells after 5 hrs by luciferase reporter gene assay; assay type: cell-based
Chain of Glucagon receptor (Homo sapiens) (P47871 whole entry): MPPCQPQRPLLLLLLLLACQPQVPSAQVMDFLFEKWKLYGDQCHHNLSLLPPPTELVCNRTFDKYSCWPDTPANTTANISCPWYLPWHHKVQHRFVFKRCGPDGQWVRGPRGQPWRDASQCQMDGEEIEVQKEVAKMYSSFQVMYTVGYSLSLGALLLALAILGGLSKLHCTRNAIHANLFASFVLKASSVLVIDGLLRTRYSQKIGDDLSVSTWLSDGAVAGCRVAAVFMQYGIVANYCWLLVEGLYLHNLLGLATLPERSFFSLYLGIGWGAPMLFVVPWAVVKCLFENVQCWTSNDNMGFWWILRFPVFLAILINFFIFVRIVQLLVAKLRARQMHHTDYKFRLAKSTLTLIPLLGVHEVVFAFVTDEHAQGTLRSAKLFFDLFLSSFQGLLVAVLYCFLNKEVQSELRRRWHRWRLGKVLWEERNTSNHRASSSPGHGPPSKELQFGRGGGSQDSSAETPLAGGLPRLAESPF

T1 sequence (P43220 whole entry): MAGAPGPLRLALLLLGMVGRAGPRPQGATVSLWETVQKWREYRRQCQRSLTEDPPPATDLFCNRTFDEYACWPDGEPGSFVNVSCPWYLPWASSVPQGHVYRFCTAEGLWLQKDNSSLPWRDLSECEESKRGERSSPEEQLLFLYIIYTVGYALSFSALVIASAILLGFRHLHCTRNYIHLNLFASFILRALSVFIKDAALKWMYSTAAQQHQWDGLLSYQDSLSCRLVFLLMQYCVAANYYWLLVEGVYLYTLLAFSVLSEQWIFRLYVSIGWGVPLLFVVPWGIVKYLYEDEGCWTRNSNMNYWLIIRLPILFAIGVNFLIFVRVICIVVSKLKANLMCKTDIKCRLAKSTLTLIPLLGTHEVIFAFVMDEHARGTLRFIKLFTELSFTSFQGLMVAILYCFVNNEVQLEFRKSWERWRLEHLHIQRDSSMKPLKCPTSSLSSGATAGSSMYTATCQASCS

EC50 [1] [nM] | clearance [2] [mL/min/kg] | Efficacy [3] [%] | EC50 [4] [nM] | Activity [5] | EC50 ([1]; hek293) [nM] | EC50 ([4]; hek293) [nM] | Structure (SMILES) | Ratio EC50 (HEK293)
80 | 1.1 | 49 | 0.1 | inactive |  |  | CCCCC(NC(=O)[C@H](CCC(=O)O)NC(=O)[C@H](CC(=O)O)NC(=O)[C@H](CO)NC(=O)[C@H](Cc1ccccc1)NC(=O)[C@H](CO)NC(=O)CNC(=O)[C@H](CC(=O)O)NC(=O)CNC(=O)[C@@H](N)Cc1cnc[nH]1)C(=O)N[C@H](Cc1cccs1)C(=O)N[C@H](C(=O)N[C@H](C(=O)N[C@@H](CC(C)C)C(=O)N[C@@H](CC(=O)O)C(=O)N[C@@H](CC(N)=O)C(=O)N[C@@H](CC(C)C)C(=O)N[C@@H](C)C(=O)N[C@@H](C)C(=O)N[C@@H](CCCNC(=N)N)C(=O)N[C@@H](CC(=O)O)C(=O)N[C@@H](Cc1ccccc1)C(=O)N[C@H](C(=O)N[C@@H](CC(N)=O)C(=O)N[C@@H](Cc1c[nH]c2ccccc12)C(=O)N[C@@H](CC(C)C)C(=O)N[C@H](C(=O)N[C@@H](CCC(N)=O)C(=O)N[C@H](C(=O)N[C@@H](CCCCN)C(N)=O)[C@@H](C)O)[C@@H](C)CC)[C@@H](C)CC)[C@@H](C)CC)[C@@H](C)O (stereo partly drawn) | 800
32 | 4.9 | 68 | 0.18 | inactive |  |  | CCCCC(NC(=O)[C@H](CCC(=O)O)NC(=O)[C@H](CC(=O)O)NC(=O)[C@H](CO)NC(=O)[C@H](Cc1ccccc1)NC(=O)[C@H](CO)NC(=O)CNC(=O)[C@H](CC(=O)O)NC(=O)CNC(=O)[C@@H](N)Cc1cnc[nH]1)C(=O)N[C@H](Cc1ccc(O)cc1)C(=O)N[C@H](C(=O)N[C@H](C(=O)N[C@@H](CC(C)C)C(=O)N[C@@H](CC(=O)O)C(=O)N[C@@H](CC(N)=O)C(=O)N[C@@H](CC(C)C)C(=O)N[C@@H](C)C(=O)N[C@@H](C)C(=O)N[C@@H](CCCNC(=N)N)C(=O)N[C@@H](CC(=O)O)C(=O)N[C@@H](Cc1ccccc1)C(=O)N[C@H](C(=O)N[C@@H](CC(N)=O)C(=O)N[C@@H](Cc1c[nH]c2ccccc12)C(=O)N[C@@H](CC(C)C)C(=O)N[C@H](C(=O)N[C@@H](CCC(N)=O)C(=O)N[C@H](C(=O)N[C@@H](CCCCN)C(N)=O)[C@@H](C)O)[C@@H](C)CC)[C@@H](C)CC)[C@@H](C)CC)[C@@H](C)O (stereo partly drawn) | 170
16 | 1.8 | 94 | 0.15 | inactive |  |  | CCCCC(NC(=O)[C@H](CCC(=O)O)NC(=O)[C@H](CC(=O)O)NC(=O)[C@H](CO)NC(=O)[C@H](Cc1ccccc1)NC(=O)[C@H](CO)NC(=O)CNC(=O)[C@H](CC(=O)O)NC(=O)CNC(=O)[C@@H](N)Cc1cnc[nH]1)C(=O)N[C@@H](Cc1ccccc1)C(=O)N[C@H](C(=O)N[C@H](C(=O)N[C@@H](CC(C)C)C(=O)N[C@@H](CC(=O)O)C(=O)N[C@@H](CC(N)=O)C(=O)N[C@@H](CC(C)C)C(=O)N[C@@H](C)C(=O)N[C@@H](C)C(=O)N[C@@H](CCCNC(=N)N)C(=O)N[C@@H](CC(=O)O)C(=O)N[C@@H](Cc1ccccc1)C(=O)N[C@H](C(=O)N[C@@H](CC(N)=O)C(=O)N[C@@H](Cc1c[nH]c2ccccc12)C(=O)N[C@@H](CC(C)C)C(=O)N[C@H](C(=O)N[C@@H](CCC(N)=O)C(=O)N[C@H](C(=O)N[C@@H](CCCCN)C(N)=O)[C@@H](C)O)[C@@H](C)CC)[C@@H](C)CC)[C@@H](C)CC)[C@@H](C)O (stereo partly drawn) | 100
45 | 0.32 | 73 | 0.11 | inactive |  |  | CCCCC(NC(=O)[C@H](CCC(=O)O)NC(=O)[C@H](CC(=O)O)NC(=O)[C@H](CO)NC(=O)[C@H](Cc1ccccc1)NC(=O)[C@H](CO)NC(=O)CNC(=O)[C@H](CC(=O)O)NC(=O)CNC(=O)[C@@H](N)Cc1cnc[nH]1)C(=O)N[C@H](Cc1cccc(Cl)c1)C(=O)N[C@H](C(=O)N[C@H](C(=O)N[C@@H](CC(C)C)C(=O)N[C@@H](CC(=O)O)C(=O)N[C@@H](CC(N)=O)C(=O)N[C@@H](CC(C)C)C(=O)N[C@@H](C)C(=O)N[C@@H](C)C(=O)N[C@@H](CCCNC(=N)N)C(=O)N[C@@H](CC(=O)O)C(=O)N[C@@H](Cc1ccccc1)C(=O)N[C@H](C(=O)N[C@@H](CC(N)=O)C(=O)N[C@@H](Cc1c[nH]c2ccccc12)C(=O)N[C@@H](CC(C)C)C(=O)N[C@H](C(=O)N[C@@H](CCC(N)=O)C(=O)N[C@H](C(=O)N[C@@H](CCCCN)C(N)=O)[C@@H](C)O)[C@@H](C)CC)[C@@H](C)CC)[C@@H](C)CC)[C@@H](C)O (stereo partly drawn) | 400
110 | 5.6 | 92 | 0.13 | inactive |  |  | CCCCC(NC(=O)[C@H](CCC(=O)O)NC(=O)[C@H](CC(=O)O)NC(=O)[C@H](CO)NC(=O)[C@H](Cc1ccccc1)NC(=O)[C@H](CO)NC(=O)CNC(=O)[C@H](CC(=O)O)NC(=O)CNC(=O)[C@@H](N)Cc1cnc[nH]1)C(=O)N[C@H](C(=O)N[C@H](C(=O)N[C@H](C(=O)N[C@@H](CC(C)C)C(=O)N[C@@H](CC(=O)O)C(=O)N[C@@H](CC(N)=O)C(=O)N[C@@H](CC(C)C)C(=O)N[C@@H](C)C(=O)N[C@@H](C)C(=O)N[C@@H](CCCNC(=N)N)C(=O)N[C@@H](CC(=O)O)C(=O)N[C@@H](Cc1ccccc1)C(=O)N[C@H](C(=O)N[C@@H](CC(N)=O)C(=O)N[C@@H](Cc1c[nH]c2ccccc12)C(=O)N[C@@H](CC(C)C)C(=O)N[C@H](C(=O)N[C@@H](CCC(N)=O)C(=O)N[C@H](C(=O)N[C@@H](CCCCN)C(N)=O)[C@@H](C)O)[C@@H](C)CC)[C@@H](C)CC)[C@@H](C)CC)[C@@H](C)O)[C@@H](C)CC (stereo partly drawn) (H-HGDGSFSDE[ξNle]ITILDNLAARDFINWLIQTK-NH2) | 840
100 | 0.73 | 36 | 0.11 | inactive |  |  | CCCCC(NC(=O)[C@H](CCC(=O)O)NC(=O)[C@H](CC(=O)O)NC(=O)[C@H](CO)NC(=O)[C@H](Cc1ccccc1)NC(=O)[C@H](CO)NC(=O)CNC(=O)[C@H](CC(=O)O)NC(=O)CNC(=O)[C@@H](N)Cc1cnc[nH]1)C(=O)N[C@H](Cc1ccccc1Cl)C(=O)N[C@H](C(=O)N[C@H](C(=O)N[C@@H](CC(C)C)C(=O)N[C@@H](CC(=O)O)C(=O)N[C@@H](CC(N)=O)C(=O)N[C@@H](CC(C)C)C(=O)N[C@@H](C)C(=O)N[C@@H](C)C(=O)N[C@@H](CCCNC(=N)N)C(=O)N[C@@H](CC(=O)O)C(=O)N[C@@H](Cc1ccccc1)C(=O)N[C@H](C(=O)N[C@@H](CC(N)=O)C(=O)N[C@@H](Cc1c[nH]c2ccccc12)C(=O)N[C@@H](CC(C)C)C(=O)N[C@H](C(=O)N[C@@H](CCC(N)=O)C(=O)N[C@H](C(=O)N[C@@H](CCCCN)C(N)=O)[C@@H](C)O)[C@@H](C)CC)[C@@H](C)CC)[C@@H](C)CC)[C@@H](C)O (stereo partly drawn) | 900
 | 0.55 | 89 |  | inactive | 8.8 | 0.16 | CCCCC(NC(=O)[C@@H](CCC(=O)O)NC(=O)[C@@H](CC(=O)O)NC(=O)[C@@H](CO)NC(=O)[C@@H](Cc1ccccc1)NC(=O)[C@@H](CO)NC(=O)CNC(=O)[C@@H](CC(=O)O)NC(=O)CNC(=O)[C@@H](N)Cc1cnc[nH]1)C(=O)NC(Cc1ccc(Cl)cc1)C(=O)N[C@H](C(=O)N[C@H](C(=O)N[C@@H](CC(C)C)C(=O)N[C@@H](CC(=O)O)C(=O)N[C@@H](CC(N)=O)C(=O)N[C@@H](CC(C)C)C(=O)N[C@@H](C)C(=O)N[C@@H](C)C(=O)N[C@@H](CCCNC(=N)N)C(=O)N[C@@H](CC(=O)O)C(=O)N[C@@H](Cc1ccccc1)C(=O)N[C@H](C(=O)N[C@@H](CC(N)=O)C(=O)N[C@H](Cc1c[nH]c2ccccc12)C(=O)N[C@H](CC(C)C)C(=O)N[C@@H](C(=O)N[C@H](CCC(N)=O)C(=O)N[C@@H](C(=O)N[C@@H](CCCCN)C(N)=O)[C@H](C)O)[C@@H](C)CC)[C@H](C)CC)[C@H](C)CC)[C@@H](C)O (stereo partly drawn) | 55
56 | 0.71 | 35 | 0.21 | inactive |  |  | CCCCC(NC(=O)[C@H](CCC(=O)O)NC(=O)[C@H](CC(=O)O)NC(=O)[C@H](CO)NC(=O)[C@H](Cc1ccccc1)NC(=O)[C@H](CO)NC(=O)CNC(=O)[C@H](CC(=O)O)NC(=O)CNC(=O)[C@@H](N)Cc1cnc[nH]1)C(=O)N[C@@H](Cc1c[nH]c2ccccc12)C(=O)N[C@H](C(=O)N[C@H](C(=O)N[C@@H](CC(C)C)C(=O)N[C@@H](CC(=O)O)C(=O)N[C@@H](CC(N)=O)C(=O)N[C@@H](CC(C)C)C(=O)N[C@@H](C)C(=O)N[C@@H](C)C(=O)N[C@@H](CCCNC(=N)N)C(=O)N[C@@H](CC(=O)O)C(=O)N[C@@H](Cc1ccccc1)C(=O)N[C@H](C(=O)N[C@@H](CC(N)=O)C(=O)N[C@@H](Cc1c[nH]c2ccccc12)C(=O)N[C@@H](CC(C)C)C(=O)N[C@H](C(=O)N[C@@H](CCC(N)=O)C(=O)N[C@H](C(=O)N[C@@H](CCCCN)C(N)=O)[C@@H](C)O)[C@@H](C)CC)[C@@H](C)CC)[C@@H](C)CC)[C@@H](C)O (stereo partly drawn) | 260
